Laboratory results taken from ChEMBL document CHEMBL1144346, “Synthesis, DNA affinity, and antiprotozoal activity of fused ring dicationic compounds and their prodrugs” (J Med Chem, 2005).

Experiments:
[1] = system: Trypanosoma brucei rhodesiense; assay: In vitro antiprotozoal activity against Trypanosoma brucei rhodesiense strain STIB900; format: functional, organism-based
[2] = system: L6; assay: In vitro cytotoxicity evaluated using cultured L6 rat myoblast cells; format: functional; conditions: read-out: TD50 (the source's name)
[3] = system: Plasmodium falciparum; assay: In vitro antiprotozoal activity for Plasmodium falciparum K1; format: functional, organism-based
[4] = system: Mus musculus; assay: In vivo antitrypanosomal activity (100 mg/kg for 4 days, p.o.) measured as cured mice infected with Trypanosoma brucei rhodesiense strain STIB900; 0 cured out of 4
[5] = system: Mus musculus; assay: In vivo antitrypanosomal activity (10 mg/kg for 4 days, i.p.) measured as cured mice infected with Trypanosoma brucei rhodesiense strain STIB900; 2 cured out of 4; format: functional
[6] = system: Nucleic Acid; assay: poly(d(A-T)2) binding affinity is measured as change in DNA melting temperature; format: nucleic-acid assay
[7] = system: Mus musculus; assay: In vivo antitrypanosomal activity (10 mg/kg for 4 days, i.p.) measured as survival days of mice infected with Trypanosoma brucei rhodesiense strain STIB900; format: functional
[8] = system: Mus musculus; assay: In vivo antitrypanosomal activity (25 mg/kg for 4 days, p.o.) measured as cured mice infected with Trypanosoma brucei rhodesiense strain STIB900; 2 cured out of 4
[9] = system: Mus musculus; assay: In vivo antitrypanosomal activity (100 mg/kg for 4 days, p.o.) measured as cured mice infected with Trypanosoma brucei rhodesiense strain STIB900; 0 cured out of 4; remark: listed apart in the source
[10] = system: Mus musculus; assay: In vivo antitrypanosomal activity (100 mg/kg for 4 days, p.o.) measured as survival days of mice infected with Trypanosoma brucei rhodesiense strain STIB900
[11] = system: Mus musculus; assay: In vivo antitrypanosomal activity (20 mg/kg for 4 days, i.p.) measured as survival days of mice infected with Trypanosoma brucei rhodesiense strain STIB900; format: functional
[12] = system: Mus musculus; assay: In vivo antitrypanosomal activity (20 mg/kg for 4 days, i.p.) measured as cured mice infected with Trypanosoma brucei rhodesiense strain STIB900; 3 cured out of 4; format: functional
[13] = system: Mus musculus; assay: In vivo antitrypanosomal activity (20 mg/kg for 4 days, i.p.) measured as cured mice infected with Trypanosoma brucei rhodesiense strain STIB900; 0 cured out of 4; format: functional

Compound	IC50 [1]	CC50 [2]	IC50 [3]	delta Tm [6]	also measured
CCOC(=O)N/C(=N/C(C)C)Nc1ccc2c(c1)Cc1cc(N/C(=N\C(C)C)NC(=O)OCC)ccc1-2	2.5 µM	94.2 µM	6.3 µM		Cures [4]: 0
N=C(N)Nc1ccc2c(c1)C(=O)c1cc(NC(=N)N)ccc1-2	0.0073 µM	41.5 µM	0.268 µM	6.1 °C	Cures [5]: 2; Survival [7]: >50.75 days
CC/N=C(/NC(=O)OCC)Nc1ccc2c(c1)Cc1cc(/N=C(/NCC)NC(=O)OCC)ccc1-2	8 µM	174 µM	4.1 µM		
CCOC(=O)N/C(=N/C)Nc1ccc2c(c1)Cc1cc(N/C(=N\C)NC(=O)OCC)ccc1-2	2.9 µM	95.6 µM	10.3 µM		Cures [8]: 2
CCOC(=O)NC(=N)Nc1ccc2c(c1)C(=O)c1cc(NC(=N)NC(=O)OCC)ccc1-2	12.9 µM	> 200 µM	3.2 µM		Cures [9]: 0
CC/N=C(/N)Nc1ccc2c(c1)Cc1cc(N/C(N)=N\CC)ccc1-2	0.0169 µM	39.2 µM	0.0133 µM	10 °C	
N=C(Nc1ccc2c(c1)Cc1cc(NC(=N)c3ccccn3)ccc1-2)c1ccccn1	0.894 µM	98.7 µM	1.2 µM	15.2 °C	
CC(C)CONC(=N)Nc1ccc2c(c1)Cc1cc(NC(=N)NOCC(C)C)ccc1-2	21.2 µM	68.4 µM	0.351 µM		Cures [4]: 0; Survival [10]: 6.75 days
C/N=C(/N)Nc1ccc2c(c1)Cc1cc(N/C(N)=N\C)ccc1-2	0.0126 µM	65.2 µM	0.01 µM	10.1 °C	Survival [11]: >52 days; Cures [12]: 3
CONC(=N)Nc1ccc2c(c1)Cc1cc(NC(=N)NOC)ccc1-2	47.5 µM	137 µM	3 µM		Cures [4]: 0; Survival [10]: 8 days
CCOC(=O)NC(=N)Nc1ccc2c(c1)Cc1cc(NC(=N)NC(=O)OCC)ccc1-2	0.814 µM	> 201 µM	3.7 µM		Cures [4]: 0; Survival [10]: 18.75 days
N=C(N)Nc1ccc2c(c1)Cc1cc(NC(=N)N)ccc1-2		4.7 µM		13.6 °C	Cures [13]: 0; Survival [11]: 6 days
CC(C)/N=C(/N)Nc1ccc2c(c1)Cc1cc(N/C(N)=N\C(C)C)ccc1-2	0.0404 µM	85.2 µM	0.0357 µM	9.3 °C	
N=C(N)Nc1ccc2c(c1)C(=O)c1cc(NC(=N)N)ccc1C2=O	0.128 µM	35.3 µM	30.2 µM	7.2 °C	
N=C(Nc1ccc2c(c1)Cc1cc(NC(=N)c3ccccc3)ccc1-2)c1ccccc1	0.292 µM	1.9 µM	0.481 µM	22 °C	
N=C(N)c1ccc(-c2ccc(-c3ccc(C(=N)N)cc3)o2)cc1 [FURAMIDINE]		6.4 µM		25 °C	Cures [13]: 0; Survival [11]: 52.5 days
N=C(N)c1ccc(OCCCCCOc2ccc(C(=N)N)cc2)cc1 [PENTAMIDINE]	0.0023 µM	1.5 µM	0.0346 µM	12.6 °C	Cures [13]: 0; Survival [11]: 40.8 days
